Results as given in the CheMixHub viscosity set.
± gives the uncertainty stated by the source.

Assay: xn = mol fraction of the nth substance listed

O=[N+]([O-])c1ccccc1 + C1COCCO1
viscosity (303.15 K, 101 kPa, x1 = 0.0852): 1.058 ± 0.0073 mPa·s | viscosity (303.15 K, 101 kPa, x1 = 0.1732): 1.058 ± 0.0073 mPa·s | viscosity (303.15 K, 101 kPa, x1 = 0.265): 1.087 ± 0.0075 mPa·s | viscosity (303.15 K, 101 kPa, x1 = 0.3592): 1.107 ± 0.0077 mPa·s | viscosity (303.15 K, 101 kPa, x1 = 0.4563): 1.148 ± 0.008 mPa·s | viscosity (303.15 K, 101 kPa, x1 = 0.5574): 1.212 ± 0.0085 mPa·s | viscosity (303.15 K, 101 kPa, x1 = 0.6625): 1.274 ± 0.009 mPa·s | viscosity (303.15 K, 101 kPa, x1 = 0.7711): 1.369 ± 0.0096 mPa·s | viscosity (303.15 K, 101 kPa, x1 = 0.8829): 1.47 ± 0.01 mPa·s

CC12CC3CC(C)(C1)CC(C)(C3)C2 + CCCCCCCCCCC
viscosity (293.15 K, 100 kPa, x1 = 0.1004): 1.267 ± 0.052 mPa·s | viscosity (293.15 K, 100 kPa, x1 = 0.1998): 1.341 ± 0.055 mPa·s | viscosity (293.15 K, 100 kPa, x1 = 0.3004): 1.419 ± 0.058 mPa·s | viscosity (293.15 K, 100 kPa, x1 = 0.4006): 1.514 ± 0.062 mPa·s | viscosity (293.15 K, 100 kPa, x1 = 0.4992): 1.628 ± 0.066 mPa·s | viscosity (293.15 K, 100 kPa, x1 = 0.6045): 1.772 ± 0.072 mPa·s | viscosity (293.15 K, 100 kPa, x1 = 0.7008): 1.935 ± 0.079 mPa·s | viscosity (293.15 K, 100 kPa, x1 = 0.8138): 2.161 ± 0.088 mPa·s | viscosity (293.15 K, 100 kPa, x1 = 0.9014): 2.369 ± 0.096 mPa·s | viscosity (298.15 K, 100 kPa, x1 = 0.1004): 1.16 ± 0.047 mPa·s | viscosity (298.15 K, 100 kPa, x1 = 0.1998): 1.227 ± 0.05 mPa·s | viscosity (298.15 K, 100 kPa, x1 = 0.3004): 1.294 ± 0.053 mPa·s | viscosity (298.15 K, 100 kPa, x1 = 0.4006): 1.374 ± 0.056 mPa·s | viscosity (298.15 K, 100 kPa, x1 = 0.4992): 1.47 ± 0.06 mPa·s | viscosity (298.15 K, 100 kPa, x1 = 0.6045): 1.595 ± 0.065 mPa·s | viscosity (298.15 K, 100 kPa, x1 = 0.7008): 1.737 ± 0.071 mPa·s | viscosity (298.15 K, 100 kPa, x1 = 0.8138): 1.939 ± 0.079 mPa·s | viscosity (298.15 K, 100 kPa, x1 = 0.9014): 2.134 ± 0.087 mPa·s | viscosity (303.15 K, 100 kPa, x1 = 0.1004): 1.071 ± 0.044 mPa·s | viscosity (303.15 K, 100 kPa, x1 = 0.1998): 1.121 ± 0.046 mPa·s | viscosity (303.15 K, 100 kPa, x1 = 0.3004): 1.187 ± 0.048 mPa·s | viscosity (303.15 K, 100 kPa, x1 = 0.4006): 1.264 ± 0.051 mPa·s | viscosity (303.15 K, 100 kPa, x1 = 0.4992): 1.351 ± 0.055 mPa·s | viscosity (303.15 K, 100 kPa, x1 = 0.6045): 1.463 ± 0.06 mPa·s | viscosity (303.15 K, 100 kPa, x1 = 0.7008): 1.589 ± 0.065 mPa·s | viscosity (303.15 K, 100 kPa, x1 = 0.8138): 1.762 ± 0.072 mPa·s | viscosity (303.15 K, 100 kPa, x1 = 0.9014): 1.926 ± 0.078 mPa·s | viscosity (308.15 K, 100 kPa, x1 = 0.1004): 0.987 ± 0.04 mPa·s | viscosity (308.15 K, 100 kPa, x1 = 0.1998): 1.038 ± 0.042 mPa·s | viscosity (308.15 K, 100 kPa, x1 = 0.3004): 1.095 ± 0.045 mPa·s | viscosity (308.15 K, 100 kPa, x1 = 0.4006): 1.165 ± 0.047 mPa·s | viscosity (308.15 K, 100 kPa, x1 = 0.4992): 1.246 ± 0.051 mPa·s | viscosity (308.15 K, 100 kPa, x1 = 0.6045): 1.348 ± 0.055 mPa·s | viscosity (308.15 K, 100 kPa, x1 = 0.7008): 1.46 ± 0.059 mPa·s | viscosity (308.15 K, 100 kPa, x1 = 0.8138): 1.612 ± 0.066 mPa·s | viscosity (308.15 K, 100 kPa, x1 = 0.9014): 1.76 ± 0.072 mPa·s | viscosity (313.15 K, 100 kPa, x1 = 0.1004): 0.92 ± 0.037 mPa·s | viscosity (313.15 K, 100 kPa, x1 = 0.1998): 0.965 ± 0.039 mPa·s | viscosity (313.15 K, 100 kPa, x1 = 0.3004): 1.019 ± 0.041 mPa·s | viscosity (313.15 K, 100 kPa, x1 = 0.4006): 1.083 ± 0.044 mPa·s | viscosity (313.15 K, 100 kPa, x1 = 0.4992): 1.152 ± 0.047 mPa·s | viscosity (313.15 K, 100 kPa, x1 = 0.6045): 1.241 ± 0.05 mPa·s | viscosity (313.15 K, 100 kPa, x1 = 0.7008): 1.34 ± 0.055 mPa·s | viscosity (313.15 K, 100 kPa, x1 = 0.8138): 1.475 ± 0.06 mPa·s | viscosity (313.15 K, 100 kPa, x1 = 0.9014): 1.605 ± 0.065 mPa·s | viscosity (318.15 K, 100 kPa, x1 = 0.1004): 0.86 ± 0.035 mPa·s | viscosity (318.15 K, 100 kPa, x1 = 0.1998): 0.9 ± 0.037 mPa·s | viscosity (318.15 K, 100 kPa, x1 = 0.3004): 0.948 ± 0.039 mPa·s | viscosity (318.15 K, 100 kPa, x1 = 0.4006): 1.006 ± 0.041 mPa·s | viscosity (318.15 K, 100 kPa, x1 = 0.4992): 1.073 ± 0.044 mPa·s | viscosity (318.15 K, 100 kPa, x1 = 0.6045): 1.155 ± 0.047 mPa·s | viscosity (318.15 K, 100 kPa, x1 = 0.7008): 1.245 ± 0.051 mPa·s | viscosity (318.15 K, 100 kPa, x1 = 0.8138): 1.369 ± 0.056 mPa·s | viscosity (318.15 K, 100 kPa, x1 = 0.9014): 1.48 ± 0.06 mPa·s | viscosity (323.15 K, 100 kPa, x1 = 0.1004): 0.802 ± 0.033 mPa·s | viscosity (323.15 K, 100 kPa, x1 = 0.1998): 0.843 ± 0.034 mPa·s | viscosity (323.15 K, 100 kPa, x1 = 0.3004): 0.889 ± 0.036 mPa·s | viscosity (323.15 K, 100 kPa, x1 = 0.4006): 0.943 ± 0.038 mPa·s | viscosity (323.15 K, 100 kPa, x1 = 0.4992): 1.001 ± 0.041 mPa·s | viscosity (323.15 K, 100 kPa, x1 = 0.6045): 1.073 ± 0.044 mPa·s | viscosity (323.15 K, 100 kPa, x1 = 0.7008): 1.153 ± 0.047 mPa·s | viscosity (323.15 K, 100 kPa, x1 = 0.8138): 1.261 ± 0.051 mPa·s | viscosity (323.15 K, 100 kPa, x1 = 0.9014): 1.362 ± 0.055 mPa·s

CCCCCO + CC#N
viscosity (298.15 K, 101 kPa, x2 = 0.1083): 2.485 ± 0.22 mPa·s | viscosity (298.15 K, 101 kPa, x2 = 0.1933): 1.918 ± 0.17 mPa·s | viscosity (298.15 K, 101 kPa, x2 = 0.2503): 1.717 ± 0.15 mPa·s | viscosity (298.15 K, 101 kPa, x2 = 0.3407): 1.33 ± 0.12 mPa·s | viscosity (298.15 K, 101 kPa, x2 = 0.4797): 0.963 ± 0.093 mPa·s | viscosity (298.15 K, 101 kPa, x2 = 0.5899): 0.747 ± 0.075 mPa·s | viscosity (298.15 K, 101 kPa, x2 = 0.6833): 0.619 ± 0.064 mPa·s | viscosity (298.15 K, 101 kPa, x2 = 0.7642): 0.525 ± 0.056 mPa·s | viscosity (298.15 K, 101 kPa, x2 = 0.8347): 0.452 ± 0.05 mPa·s | viscosity (298.15 K, 101 kPa, x2 = 0.8958): 0.418 ± 0.047 mPa·s | viscosity (298.15 K, 101 kPa, x2 = 0.9508): 0.374 ± 0.043 mPa·s | viscosity (303.15 K, 101 kPa, x2 = 0.1083): 1.966 ± 0.18 mPa·s | viscosity (303.15 K, 101 kPa, x2 = 0.1933): 1.703 ± 0.15 mPa·s | viscosity (303.15 K, 101 kPa, x2 = 0.2503): 1.477 ± 0.14 mPa·s | viscosity (303.15 K, 101 kPa, x2 = 0.3407): 1.2 ± 0.11 mPa·s | viscosity (303.15 K, 101 kPa, x2 = 0.4797): 0.879 ± 0.086 mPa·s | viscosity (303.15 K, 101 kPa, x2 = 0.5899): 0.688 ± 0.07 mPa·s | viscosity (303.15 K, 101 kPa, x2 = 0.6833): 0.569 ± 0.06 mPa·s | viscosity (303.15 K, 101 kPa, x2 = 0.7642): 0.486 ± 0.053 mPa·s | viscosity (303.15 K, 101 kPa, x2 = 0.8347): 0.428 ± 0.048 mPa·s | viscosity (303.15 K, 101 kPa, x2 = 0.8958): 0.392 ± 0.045 mPa·s | viscosity (303.15 K, 101 kPa, x2 = 0.9508): 0.357 ± 0.042 mPa·s | viscosity (308.15 K, 101 kPa, x2 = 0.1083): 1.752 ± 0.16 mPa·s | viscosity (308.15 K, 101 kPa, x2 = 0.1933): 1.519 ± 0.14 mPa·s | viscosity (308.15 K, 101 kPa, x2 = 0.2503): 1.334 ± 0.12 mPa·s | viscosity (308.15 K, 101 kPa, x2 = 0.3407): 1.088 ± 0.1 mPa·s | viscosity (308.15 K, 101 kPa, x2 = 0.4797): 0.804 ± 0.079 mPa·s | viscosity (308.15 K, 101 kPa, x2 = 0.5899): 0.636 ± 0.065 mPa·s | viscosity (308.15 K, 101 kPa, x2 = 0.6833): 0.527 ± 0.056 mPa·s | viscosity (308.15 K, 101 kPa, x2 = 0.7642): 0.458 ± 0.05 mPa·s | viscosity (308.15 K, 101 kPa, x2 = 0.8347): 0.41 ± 0.046 mPa·s | viscosity (308.15 K, 101 kPa, x2 = 0.8958): 0.369 ± 0.043 mPa·s | viscosity (308.15 K, 101 kPa, x2 = 0.9508): 0.342 ± 0.041 mPa·s
